Laboratory results taken from patent US20260216229A1, “PROGRAMMABLE DNA PROTEOLYSIS TARGET CHIMERAS AND METHODS OF THEIR USE” (ARIZONA BOARD OF REGENTS ON BEHALF OF ARIZONA STATE …, priority 2023, published 2026).

Key:
Format in all cases: cell-based
[1] = molecular target: T1, CDK6 (Homo sapiens, UniProt Q00534); assay: Proteasome inhibition (MG132) assay of CDK6 degradation in U251 cells; conditions: 8-hour treatment
T1 construct: Western blot analysis of CDK6 degradation in U251 cells treated with distance-based DNA-PROTACs; endogenous in cells; host or cells: U-251 MG (U251) glioblastoma cells
T1 sequence (Q00534 whole entry): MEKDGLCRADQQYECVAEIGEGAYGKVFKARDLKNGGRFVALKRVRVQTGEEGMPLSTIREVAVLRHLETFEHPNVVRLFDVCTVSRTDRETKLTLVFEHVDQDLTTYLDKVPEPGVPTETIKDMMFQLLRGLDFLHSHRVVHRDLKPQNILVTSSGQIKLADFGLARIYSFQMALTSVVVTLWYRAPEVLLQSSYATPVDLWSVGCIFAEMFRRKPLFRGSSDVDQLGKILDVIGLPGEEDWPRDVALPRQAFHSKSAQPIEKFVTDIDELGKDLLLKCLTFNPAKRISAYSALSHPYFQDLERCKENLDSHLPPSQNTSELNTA
Procedure: One day prior to DNA-PROTACs transfection, cells were propagated into 6 cm cell culture dishes containing appropriate complete growth medium. Prior to transfection, complete medium was replaced with transfection medium (5% FBS, no Penstrep). DNA-PROTACs transfection was performed using lipofectamine 3000 reagent according to the protocols provided by the manufacture. All transfections were carried out in 6-cm dishes with 3 mL of media and concentrations of DNA-PROTACs were calculated according to this volume (3 mL). Briefly, for 50 nM concentration, 5 μL from a 30 µM DNA-PROTACs stock and 12 μL p3000 reagent was added to a tube containing 125 μL of OPTIM-MEM and 8 μL of Lipofectamine 3000 reagent was added to a separate tube containing 125 μL of OPTIM-MEM. Two tubes were incubated for 5 minutes at room temperature and DNA-PROTACs containing OPTI-MEM was then slowly added to the second tube with lipo3000. The solution in the tube was mixed well by pipetting up and down several times. […]
Protein concentration in all the cell lysates were measured by BCA protein assay kit and equal amounts from each lysate were mixed with 4×loading dye and boiled for 5 minutes followed by 2 minutes centrifugation prior to loading into SDS-PAGE gel. […]
Subsequent RNA isolation and RT-PCR detection enabled a quantitative assessment of CDK6 and CDK4 mRNA expression levels. […]

[2] = system: CDK4 mRNA; assay: RT-PCR of CDK4 mRNA expression in U251 cells; conditions: 100 nM, 6 hours
Procedure: (§1) Subsequent RNA isolation and RT-PCR detection enabled a quantitative assessment of CDK6 and CDK4 mRNA expression levels. […] To further corroborate the mechanistic intricacies of DNA-PROTAC-V02, we probed its interaction with the proteasome pathway. […] Following an 8-hour treatment period, cells were collected, and Western blot analysis was conducted.

[3] = molecular target: T1, CDK6; assay: Western blot of CDK6 degradation in U251 cells transfected with DNA-PROTACs
Procedure: U-251 MG Glioblastoma Cell Line was grown in Dulbecco's Modified Eagles Medium (DMEM) containing 10% heat inactivated fetal bovine serum (FBS), streptomycin (5 μg/mL) and 5 U/mL penicillin 95 U/mL). All cell lines were maintained, and cell culture experiments were carried out in humidified incubators at 37° C. and 5% CO2 supplementation.
One day prior to DNA-PROTACs transfection, cells were propagated into 6 cm cell culture dishes containing appropriate complete growth medium. Prior to transfection, complete medium was replaced with transfection medium (5% FBS, no Penstrep). DNA-PROTACs transfection was performed using lipofectamine 3000 reagent according to the protocols provided by the manufacture. All transfections were carried out in 6-cm dishes with 3 mL of media and concentrations of DNA-PROTACs were calculated according to this volume (3 mL). Briefly, for 50 nM concentration, 5 μL from a 30 µM DNA-PROTACs stock and 12 μL p3000 reagent was added to a tube containing 125 μL of OPTIM-MEM and 8 μL of Lipofectamine 3000 reagent was added to a separate tube containing 125 μL of OPTIM-MEM. Two tubes were incubated for 5 minutes at room temperature and DNA-PROTACs containing OPTI-MEM was then slowly added to the second tube with lipo3000. The solution in the tube was mixed well by pipetting up and down several times. After incubating for 15-20 minutes at room temperature, 250 μL of DNA-PROTACs-lipofectamine complex was added drop wise onto cells containing the transfection medium. Transfection medium was mixed well before transferring the plate into the incubator. After appropriate time, cells were either harvested or replaced with fresh medium and incubated for desired time point prior to harvesting. For proteasome inhibition assay, 5 μM of MG-132 was incubated with cells for 2 h prior to transfection of DNA-PROTACs. Then, cells were incubated for another 12 h before lysing cells. Cell lysates were prepared by incubating cells in RIPA lysis buffer (25 mM Tris pH 7.6, 150 mM NaCl, 1% NP40, 1% deoxycholate, 0.1% SDS, 1× protease inhibitor cocktail from Roche and 1 mM of PMSF) on ice for 30 minutes and cell lysate was clarified by centrifugation at high speed (15 000 rpm) for 15 minutes. Clear supernatant was collected for further experiments.
Protein concentration in all the cell lysates were measured by BCA protein assay kit and equal amounts from each lysate were mixed with 4×loading dye and boiled for 5 minutes followed by 2 minutes centrifugation prior to loading into SDS-PAGE gel. Next proteins on the SDS-PAGE gel were transferred to a Nitrocellulose membrane by western blotting and the membrane was blocked with 5% milk in TBST (0.05% Tween 20) for 1 h. Primary antibodies (all Abcam antibodies were diluted 1:5000) were prepared in TBST with 2.5% milk and membranes were incubated overnight at 4° C. On the following day, membrane was washes for 15 minutes (Incubate for three times, 5 minutes each) and appropriate secondary antibodies (1:5000) were prepared in TBST and incubated with the membrane for 1 h at room temperature (RT). Membrane was washed for 15 minutes with TBST (incubate for three times, […]) prior to imaging.
The degradation efficiency of various DNA-PROTACs was evaluated through their transfection into U251 cells, conducted simultaneously to ensure uniform experimental conditions. A double-stranded DNA sequence without any ligand was utilized as a negative control, providing a baseline for comparison. Following a 14-hour treatment period, a duration selected based on preliminary time-course studies, the cells were harvested using trypsin digestion. The lysates obtained were then subjected to SDS-PAGE, followed by Western blot analysis to assess protein degradation. […] This finding highlights the efficacy of DNA-PROTAC V02 in targeting and reducing CDK6 protein levels. In comparison, DNA-PROTAC Versions 03 and 04 also facilitated protein degradation, albeit with varying degrees of efficiency. […]

[4] = system: CDK6 mRNA; assay: RT-PCR of CDK6 mRNA expression in U251 cells; conditions: 100 nM, 6 hours
Procedure: as §1

[5] = molecular target: T1, CDK6; assay: Immunofluorescence staining / confocal analysis of CDK6 in U251 cells; conditions: 20 nM and 100 nM, compared to controls dsDNA, dsDNA-CDK6-i, dsDNA-E3-i
Procedure: U-251 MG cells were seeded into 10 mm confocal dishes (Ibidi) and incubated overnight. Subsequently, cells were quickly washed thrice with ice-cold PBS and then fixed with 4% paraformaldehyde for 20 min. After fixation, cells were washed with PBS and permeabilized with 0.1% Triton X-100 at room temperature for 10 min. The samples were then incubated in a blocking solution for 1 h at room temperature, followed by incubation with primary antibody overnight at 4° C. The primary antibody used was mouse CDK6 antibody (Abacm, 1:100). After washing thrice with PBST (PBS with 0.1% Tween 20), the samples were incubated with the secondary antibody in the dark for 1.5 h at room temperature. Cells were washed 3 times in PBST for 5 minutes each then incubated in the appropriate secondary antibodies supplemented CoraLite488-conjugated Goat Anti-Rabbit IgG(H+L) (Proteintech, 1:100) for 3 hrs. The nucleus was counterstained with DAPI (Hoechst 3342, 1 ug/mL) for 20 mins followed by 3 times wash in PBST. Finally, the slides were Imaging by Nikon X confocal.

[6] = molecular target: T2, CDK4 (Homo sapiens, UniProt P11802); assay: Western blot of CDK4 degradation in U251 cells transfected with DNA-PROTACs
T2 construct: Dose- and Time-dependent Degradation of CDK6 and CDK4 in U251 Cells; endogenous in cells; host or cells: U-251 MG (U251) glioblastoma cells
T2 sequence (P11802 whole entry): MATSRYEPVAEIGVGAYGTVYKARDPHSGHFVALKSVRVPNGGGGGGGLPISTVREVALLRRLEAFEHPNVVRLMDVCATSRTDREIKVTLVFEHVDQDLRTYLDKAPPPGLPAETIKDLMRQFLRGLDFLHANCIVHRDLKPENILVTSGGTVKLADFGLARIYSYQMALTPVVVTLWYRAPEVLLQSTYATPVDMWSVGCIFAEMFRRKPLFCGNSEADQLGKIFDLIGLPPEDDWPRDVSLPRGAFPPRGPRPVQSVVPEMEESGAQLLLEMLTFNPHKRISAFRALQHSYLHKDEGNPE
Procedure: One day prior to DNA-PROTACs transfection, cells were propagated into 6 cm cell culture dishes containing appropriate complete growth medium. Prior to transfection, complete medium was replaced with transfection medium (5% FBS, no Penstrep). DNA-PROTACs transfection was performed using lipofectamine 3000 reagent according to the protocols provided by the manufacture. All transfections were carried out in 6-cm dishes with 3 mL of media and concentrations of DNA-PROTACs were calculated according to this volume (3 mL). Briefly, for 50 nM concentration, 5 μL from a 30 µM DNA-PROTACs stock and 12 μL p3000 reagent was added to a tube containing 125 μL of OPTIM-MEM and 8 μL of Lipofectamine 3000 reagent was added to a separate tube containing 125 μL of OPTIM-MEM. […]

DNA-PROTAC-V02: DNA duplex of E3-i (pomalidomide) strand SEQ ID NO 3 and POI-i (palbociclib) strand SEQ ID NO 4 (chain 1 ACTCCATCTANTTCTACGCCA; chain 2 TGGCGTAGAANTAGATGGAGT; pomalidomide and palbociclib conjugated; modified_base 1 OTHER; Nucleotide with phosphorothioate linkage; modified_base 2 OTHER; modified_base 3 OTHER; misc_difference 11 E3 ligase attached to 3-Dimethoxytrityloxy-2-(3-(fluorenylmethoxycarbonylamino)propanamido)propyl-1-O-(2-cyanoethyl)-(N,N-diisopropyl)-phosphoramidite modified adenosine, cytidine, thymi; m)
CDK6 protein (Western blot) without MG132 treatment ([1]; 50 nM, no MG132): reduction in CDK6 protein | CDK6 protein (Western blot) with MG132 pre-treatment ([1]; MG132 pre-treatment 1 hour, then 50 nM): rescue of CDK6 proteins | CDK4 mRNA levels (RT-PCR) [2]: does not elicit a decrease in mRNA levels | CDK6 degradation ([3]; 50 nM): over 80% | time for which CDK6 degradation was sustained ([3]; 50 nM, time course): up to 48 hours | CDK6 protein degradation (Western blot) ([3]; 14-hour treatment, 50 nM and 100 nM, vs ligand-free dsDNA control): most pronounced degradation of CDK6 | concentration at which significant CDK6 degradation begins ([3]; 14 hours, angular series): 20 nM | concentration at which dose-dependent degradation of CDK6 commences ([3]; dose series): 10 nM | CDK6 mRNA levels (RT-PCR) [4]: does not elicit a decrease in mRNA levels | intracellular green fluorescence (CDK6 immunofluorescence) [5]: weakened intracellular green fluorescence

DNA-E3 ligand: control: dsDNA with E3 ligand only (chain 1 CTCCATCTATTCTACGCCA; chain 2 TTCTACGCCA; chain 1: DNA, linkages s2 o13 s3 (s phosphorothioate, o phosphodiester), methylation of C not given here; chain 2: DNA, linkages o6 s3 (s phosphorothioate, o phosphodiester), methylation of C not given here; further chemistry not fully specified) [reference compound]
CDK4 protein degradation (target selectivity, controls) [6]: did not induce notable protein degradation | CDK6 protein degradation (target selectivity, controls) [3]: did not induce notable protein degradation
